Calls of active or inactive are those of the source. The rule behind the calls is not given here.
Assays:
[1] = Terminal half life in iv dosed mouse; format: ADME, organism-based; settings: in vivo, read-out: beta t1/2
[2] = Toxicity in SCID mouse xenografted with human NCI-H2122 cells assessed as induction of weight loss at 200 mg/kg/day dosed via gavage daily for 20 days; format: organism-based; settings: in vivo, po, 480 h
[3] = Toxicity in SCID mouse xenografted with human NCI-H2122 cells assessed as induction of observable toxic effects at 200 mg/kg/day dosed via gavage daily for 20 days; format: organism-based; settings: in vivo, po, 480 h
[4] = target: T1, Connector enhancer of kinase suppressor of ras 1 (Homo sapiens) (UniProt Q969H4); experiment: Inhibition of CNKSR1 (unknown origin) assessed as reduction in inhibition of KRas signaling effectors by measuring GTP-RalA levels at 20 uM by cell based assay
T1 sequence (whole entry): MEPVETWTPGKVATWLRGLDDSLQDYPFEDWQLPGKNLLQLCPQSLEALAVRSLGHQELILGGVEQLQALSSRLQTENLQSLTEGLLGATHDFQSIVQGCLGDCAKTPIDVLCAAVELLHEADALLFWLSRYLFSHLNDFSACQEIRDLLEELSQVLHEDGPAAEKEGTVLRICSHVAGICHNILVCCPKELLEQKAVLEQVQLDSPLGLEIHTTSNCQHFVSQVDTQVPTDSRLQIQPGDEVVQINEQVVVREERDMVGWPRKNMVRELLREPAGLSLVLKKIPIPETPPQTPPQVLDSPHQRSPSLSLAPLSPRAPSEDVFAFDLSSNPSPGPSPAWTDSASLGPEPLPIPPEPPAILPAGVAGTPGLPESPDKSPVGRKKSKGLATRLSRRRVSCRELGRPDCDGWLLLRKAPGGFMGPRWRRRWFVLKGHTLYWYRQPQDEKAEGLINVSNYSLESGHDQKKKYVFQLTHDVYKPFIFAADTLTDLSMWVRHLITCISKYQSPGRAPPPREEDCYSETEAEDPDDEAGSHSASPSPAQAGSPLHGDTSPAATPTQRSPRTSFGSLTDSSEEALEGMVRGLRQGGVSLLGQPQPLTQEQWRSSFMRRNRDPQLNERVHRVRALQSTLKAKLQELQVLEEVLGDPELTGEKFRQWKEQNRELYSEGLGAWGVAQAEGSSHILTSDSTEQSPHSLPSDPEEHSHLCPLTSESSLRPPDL

HCC515 = experiment: Growth inhibition of human HCC515 cells relative to control; format: functional, cell-based
NCI-H2122 [5] = experiment: Growth inhibition of human NCI-H2122 cells relative to control; format: functional, cell-based
[6] = target: Rho guanine nucleotide exchange factor TIAM1 (Homo sapiens) (UniProt Q13009); experiment: Binding affinity to TIAM1 PH-domain (unknown origin) at 0.01 to 50 uM by SPR spectroscopy
Chain of Rho guanine nucleotide exchange factor TIAM1 (Homo sapiens) (Q13009 whole entry): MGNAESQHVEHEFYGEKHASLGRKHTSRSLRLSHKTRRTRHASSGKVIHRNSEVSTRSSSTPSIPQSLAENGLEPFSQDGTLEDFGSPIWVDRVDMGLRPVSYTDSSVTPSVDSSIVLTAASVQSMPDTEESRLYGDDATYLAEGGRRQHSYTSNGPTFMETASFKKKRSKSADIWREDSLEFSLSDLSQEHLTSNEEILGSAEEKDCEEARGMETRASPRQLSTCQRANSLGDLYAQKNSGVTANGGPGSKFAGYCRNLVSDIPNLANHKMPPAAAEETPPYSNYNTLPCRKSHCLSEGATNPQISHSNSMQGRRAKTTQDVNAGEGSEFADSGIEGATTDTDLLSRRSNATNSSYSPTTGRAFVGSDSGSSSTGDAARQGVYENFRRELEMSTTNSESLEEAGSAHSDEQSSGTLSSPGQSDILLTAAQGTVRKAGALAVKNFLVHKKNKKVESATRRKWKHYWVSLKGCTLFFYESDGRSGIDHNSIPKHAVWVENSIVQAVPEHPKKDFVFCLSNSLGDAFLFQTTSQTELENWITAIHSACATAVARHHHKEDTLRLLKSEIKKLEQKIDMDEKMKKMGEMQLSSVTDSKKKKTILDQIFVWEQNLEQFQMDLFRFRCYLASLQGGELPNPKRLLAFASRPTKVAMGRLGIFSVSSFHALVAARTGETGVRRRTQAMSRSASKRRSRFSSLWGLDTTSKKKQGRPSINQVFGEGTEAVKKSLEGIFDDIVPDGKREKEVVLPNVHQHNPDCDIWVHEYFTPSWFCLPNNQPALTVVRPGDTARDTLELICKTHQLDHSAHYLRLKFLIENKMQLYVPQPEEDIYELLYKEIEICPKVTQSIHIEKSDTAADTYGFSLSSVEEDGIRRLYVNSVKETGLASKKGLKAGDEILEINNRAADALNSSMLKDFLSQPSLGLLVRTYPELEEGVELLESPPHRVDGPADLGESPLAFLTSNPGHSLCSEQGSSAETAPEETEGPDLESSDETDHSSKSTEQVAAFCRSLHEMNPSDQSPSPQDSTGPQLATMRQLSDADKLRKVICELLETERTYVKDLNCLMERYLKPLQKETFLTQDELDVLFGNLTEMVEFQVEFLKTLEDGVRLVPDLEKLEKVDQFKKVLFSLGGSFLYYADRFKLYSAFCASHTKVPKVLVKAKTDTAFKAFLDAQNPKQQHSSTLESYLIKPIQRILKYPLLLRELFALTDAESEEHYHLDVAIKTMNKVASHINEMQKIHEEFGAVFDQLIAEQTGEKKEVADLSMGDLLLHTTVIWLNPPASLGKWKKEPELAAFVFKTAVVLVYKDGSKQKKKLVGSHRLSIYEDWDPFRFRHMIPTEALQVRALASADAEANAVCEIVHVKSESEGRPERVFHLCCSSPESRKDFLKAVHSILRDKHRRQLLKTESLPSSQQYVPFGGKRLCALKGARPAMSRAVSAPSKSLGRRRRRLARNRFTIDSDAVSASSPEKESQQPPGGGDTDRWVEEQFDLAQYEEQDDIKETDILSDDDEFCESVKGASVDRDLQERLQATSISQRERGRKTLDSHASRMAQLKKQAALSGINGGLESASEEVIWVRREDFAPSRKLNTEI

NCI-H2122 [7] = experiment: Antitumor activity against human NCI-H2122 cells xenografted in SCID mouse assessed as inhibition of tumor growth at 200 mg/kg/day dosed via gavage daily for 20 days relative to control; format: functional; settings: NCI-H2122, po, 480 h, read-out: TGI
[8] = target: T2, carboxylesterase 2 (cocaine esterase) (Homo sapiens, UniProt O00748); experiment: Stability assessed as recombinant human carboxyesterase-2 mediated compound hydrolysis by measuring half life at 50 ug/ml at 37 degC at pH 7.4; format: ADME; settings: recombinant human carboxylesterase-2, pH 7.4
T2 sequence (O00748 whole entry): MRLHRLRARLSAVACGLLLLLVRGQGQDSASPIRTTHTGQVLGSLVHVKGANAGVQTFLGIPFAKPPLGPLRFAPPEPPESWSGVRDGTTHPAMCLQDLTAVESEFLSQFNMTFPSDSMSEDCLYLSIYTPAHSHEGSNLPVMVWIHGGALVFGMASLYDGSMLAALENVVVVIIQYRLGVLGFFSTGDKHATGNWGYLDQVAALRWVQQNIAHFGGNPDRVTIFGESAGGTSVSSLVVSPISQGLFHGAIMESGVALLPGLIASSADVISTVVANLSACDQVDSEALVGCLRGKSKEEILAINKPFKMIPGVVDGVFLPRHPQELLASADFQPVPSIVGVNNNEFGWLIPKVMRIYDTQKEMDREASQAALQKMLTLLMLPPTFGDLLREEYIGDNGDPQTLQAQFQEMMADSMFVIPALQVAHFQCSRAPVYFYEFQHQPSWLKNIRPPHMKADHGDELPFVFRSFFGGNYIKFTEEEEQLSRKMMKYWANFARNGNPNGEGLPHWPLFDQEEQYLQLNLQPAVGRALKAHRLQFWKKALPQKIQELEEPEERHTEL

[9] = target: T1, Connector enhancer of kinase suppressor of ras 1 (Homo sapiens); experiment: Inhibition of GFP-tagged CNKSR1 (unknown origin) expressed in HEK293T cells assessed as blocking of membrane colocalization of CNKSR1 and mutant-KRas at plasma membrane at 50 uM incubated for 4 hrs by confocal imaging assay; format: cell-based
[10] = Half life in beagle dog plasma at 50 ug/ml at 37 degC at pH 7.4; format: ADME, cell-free, Canis lupus familiaris
[11] = Plasma concentration in C57BL6 mouse at 250 mg/kg, po dosed via gavage as single administration; format: ADME, organism-based; settings: in vivo
[12] = Growth inhibition of human […] cells incubated for 3 days; format: functional; settings: 72 h
[13] = Half life in human plasma at 50 ug/ml at 37 degC at pH 7.4; format: ADME, cell-free
[14] = target: T1, Connector enhancer of kinase suppressor of ras 1 (Homo sapiens); experiment: Inhibition of CNKSR1 (unknown origin) assessed as reduction in inhibition of KRas signaling effectors by measuring p-AKT levels at 20 uM by cell based assay
[15] = Half life in C57BL6 mouse at 250 mg/kg, po dosed via gavage as single administration; format: ADME, organism-based; settings: in vivo
[16] = Drug metabolism in C57BL6 mouse plasma assessed as Cmax for 2-(4-oxo-3-((4-p-tolylthiazol-2-yl)methyl)-3,4-dihydrophthalazin-1-yl)acetic acid at 250 mg/kg, po dosed via gavage as single administration; format: ADME, organism-based; set-up: dose 250 mg/kg, route oral; settings: in vivo
[17] = target: T1, Connector enhancer of kinase suppressor of ras 1 (Homo sapiens); experiment: Inhibition of CNKSR1 PH-domain (unknown origin) assessed as reduction in c-RAF Ser338 phosphorylation at 25 to 50 uM by cell based Western blot analysis

half-life [1]: 3 min
inhibition [4]: Active
Activity [6]: inactive
half-life at 50 ug/ml [8]: 1.65 h
inhibition [9]: Active
half-life at 50 ug/ml [10]: 9.3 h
concentration [11]: 7 µM
t1/2 [13]: Stable
inhibition [14]: Active
half-life [15]: 6 h
Cmax [16]: 128 µM
inhibition [17]: Active
SMILES: CCOC(=O)Cc1nn(Cc2nc(-c3ccc(C)cc3)cs2)c(=O)c2ccccc12
Activity [2]: Non-Toxic
Activity [3]: Non-Toxic
growth inhibition (GI) (HCC515): Active
growth inhibition (GI) (NCI-H2122 [5]): Active
inhibition in vivo at 200 mg/kg/day (NCI-H2122 [7]): 45%
IC50 [12]: 51 µM

— ChEMBL document CHEMBL4419164, “Methods and compositions for inhibiting cnksr1” (2018)
